# From PubChem BioAssay AID1259246 (Broad Institute, 2017)
# Several values for one entry are separate records, joined by “and”; a condition that tells them apart may be missing. Equal values may be shown once. Results filed as inconclusive are left out. Activity calls are given as the source filed them.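 Rule for the calls: active = valid dose-response fit whose half-maximal growth-inhibiting concentration is at or below a set limit above the top tested dose; inconclusive = flat fit with effect between 30 and 70%, or poor fit; inactive = half-maximal concentration above a set limit.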
# Assay: antibacterial activity against Clostridioides difficile – 10-point retest, dose response (AID 1259246)
# Details: Clostridioides difficile clinical isolate growth, OD600, 24 h; at 60 µM (top of the series)
row,SMILES,"activity change, negative = inhibition"
1,C[C@H]1CCCCO[C@H](CN(C)Cc2ccccc2)[C@@H](C)CN([C@@H](C)CO)C(=O)c2cc(NC(=O)Nc3ccc(C(F)(F)F)cc3)ccc2O1,3.08% (inactive)
2,O=C(C[C@H]1C[C@@H]2c3cc(NC(=O)C4CCC4)ccc3O[C@@H]2[C@@H](CO)O1)NCc1ccncc1,-0.413% (inactive)
3,CN(C)CC(=O)N1[C@H](C#N)[C@H](c2ccc(C#CC3CCCCC3)cc2)[C@H]1CO,6.71% (inactive)
4,C[C@H](CO)N1C[C@H](C)[C@@H](CN(C)S(=O)(=O)c2cn(C)cn2)OCCCC[C@H](C)Oc2ccc(NC(=O)Nc3cccc4ccccc34)cc2C1=O,4.46% (inactive)

# Same assay, conditions: Clostridioides difficile clinical isolate growth, OD600, 24 h; at 68 µM (top of the series)
row,SMILES,"activity change, negative = inhibition"
1,C[C@@H]1CN([C@@H](C)CO)C(=O)c2cccc(NC(=O)Nc3ccc(C(F)(F)F)cc3)c2O[C@H]1CN(C)S(=O)(=O)c1ccc(Cl)cc1,12.7% (inactive)

# Same assay, conditions: Clostridioides difficile clinical isolate growth, OD600, 24 h; at 120 µM (top of the series)
row,SMILES,"activity change, negative = inhibition"
1,C[C@H](CO)N1C[C@H](C)[C@@H](CN(C)C(=O)Nc2cccc3ccccc23)Oc2ccc(NC(=O)CCN3CCOCC3)cc2C1=O,38.8% (inactive)
2,C[C@@H]1CCCCO[C@@H](CN(C)S(=O)(=O)c2ccc(F)cc2)[C@@H](C)CN([C@@H](C)CO)C(=O)c2cc(NC(=O)Nc3cccc4ccccc34)ccc2O1,12.1% (inactive)
3,C[C@@H]1CN([C@H](C)CO)C(=O)Cc2cc(NC(=O)CCCN(C)C)ccc2O[C@H]1CN(C)C,0.476% (inactive)
4,C[C@H](CO)N1C[C@H](C)[C@@H](CN(C)Cc2ccc(Oc3ccccc3)cc2)Oc2c(NC(=O)Nc3ccccc3)cccc2C1=O,23.8% (inactive)
5,C[C@H](CO)N1C[C@H](C)[C@H](CN(C)Cc2ccc(-c3ccccc3)cc2)Oc2c(NC(=O)Nc3ccc(C(F)(F)F)cc3)cccc2C1=O,16.3% (inactive)
6,C[C@@H]1CN([C@@H](C)CO)C(=O)c2cccc(NC(=O)Nc3ccc(C(F)(F)F)cc3)c2O[C@H]1CN(C)S(=O)(=O)c1ccc(Cl)cc1,50.7% (inactive)
7,CO[C@@H]1CN(C)C(=O)c2ccc(NC(=O)c3ccc(-c4ccccc4)cc3)cc2OC[C@H](C)NC[C@@H]1C,17% (inactive)
8,O=C(C[C@H]1C[C@H]2c3cc(NC(=O)C4CCC4)ccc3O[C@H]2[C@@H](CO)O1)NCc1ccc(Cl)cc1,2.85% (inactive)
9,C[C@@H]1CN([C@H](C)CO)S(=O)(=O)c2ccc(C#CC3CCCC3)cc2O[C@H]1CN(C)C,4.79% (inactive)
10,COc1ccc(NC(=O)Nc2cccc3c2O[C@@H](CN(C)Cc2ccc(Oc4ccccc4)cc2)[C@@H](C)CN([C@@H](C)CO)C3=O)cc1,30.5% (inactive)
11,C[C@H](CO)N1C[C@H](C)[C@@H](CN(C)C(=O)Nc2ccc(C(F)(F)F)cc2)Oc2c(NC(=O)Nc3cccc4ccccc34)cccc2C1=O,36.8% (inactive)
12,CC(C)CC#Cc1ccc2c(c1)O[C@H](CN(C)Cc1ccc3c(c1)OCO3)[C@H](C)CN([C@@H](C)CO)S2(=O)=O,26.5% (inactive)
13,C[C@@H]1CN([C@H](C)CO)C(=O)Cc2cc(NC(=O)C3CC3)ccc2O[C@@H]1CN(C)Cc1ccccc1,-3.71% (inactive)
14,C[C@H](CO)N1C[C@H](C)[C@@H](CN(C)S(=O)(=O)c2ccc(F)cc2)OCCCC[C@H](C)Oc2ccc(NC(=O)Nc3cccc4ccccc34)cc2C1=O,16.3% (inactive)
15,C[C@H](CO)N1C[C@H](C)[C@@H](CN(C)Cc2ccncc2)Oc2cc(-c3ccccc3)ccc2S1(=O)=O,21.1% (inactive)
16,CO[C@H]1CN(C)C(=O)c2ccc(NC(=O)C3CCC3)cc2OC[C@H](C)N(Cc2ccncc2)C[C@@H]1C,-5.3% (inactive)

row,SMILES,"activity change, negative = inhibition"
1,CC(C)CC#Cc1ccc2c(c1)O[C@@H](CN(C)Cc1ccc3c(c1)OCO3)[C@H](C)CN([C@@H](C)CO)S2(=O)=O,11% (inactive)
2,C[C@H](CO)N1C[C@H](C)[C@@H](CN(C)C(=O)Cc2cccnc2)Oc2cc(C#Cc3ccccc3F)ccc2S1(=O)=O,40.8% (inactive)
3,CCCC#Cc1ccc2c(c1)O[C@H](CN(C)Cc1ccc3c(c1)OCO3)[C@H](C)CN([C@@H](C)CO)S2(=O)=O,25.5% (inactive)
4,COc1ccc(NC(=O)N(C)C[C@H]2Oc3ccc(NC(=O)C4CC4)cc3CC(=O)N([C@H](C)CO)C[C@H]2C)cc1,-3.71% (inactive)
5,COC(=O)C[C@H]1C[C@@H]2c3cc(NC(=O)C4CCC4)ccc3O[C@@H]2[C@@H](CO)O1,-6.56% (inactive)
6,COc1ccc(NC(=O)Nc2ccc3c(c2)[C@H]2C[C@H](CC(=O)NCc4ccccc4F)O[C@@H](CO)[C@H]2O3)cc1,3.92% (inactive)
7,CNC[C@H]1Oc2c(N)cccc2C(=O)N([C@@H](C)CO)C[C@H]1C,-0.016% (inactive)
8,O=C(N[C@H]1CC[C@H](CCNS(=O)(=O)Cc2ccccc2)O[C@H]1CO)c1cnccn1,-2.56% (inactive)
9,C[C@@H]1CN([C@H](C)CO)C(=O)c2cc(NC(=O)Nc3cccc4ccccc34)ccc2O[C@@H](C)CCCCO[C@H]1CN(C)S(=O)(=O)c1ccccc1,9.12% (inactive)
10,O=C(C[C@H]1C[C@H]2c3cc(NC(=O)C4CCC4)ccc3O[C@H]2[C@H](CO)O1)NCc1ccc(Cl)cc1,6.93% (inactive)
11,CC(C)CC#Cc1ccc2c(c1)O[C@H](CN(C)Cc1ccc(F)cc1)[C@H](C)CN([C@H](C)CO)S2(=O)=O,28% (inactive) and 85.7% (inactive)
12,CNC[C@H]1Oc2ccc(N)cc2CC(=O)N([C@@H](C)CO)C[C@H]1C,-3.55% (inactive)
13,C[C@@H]1CN([C@H](C)CO)C(=O)c2cccc(NC(=O)Nc3ccc(C(F)(F)F)cc3)c2O[C@H]1CN(C)Cc1ccc(-c2ccccc2)cc1,8.44% (inactive)
14,COc1ccc(S(=O)(=O)N(C)C[C@H]2Oc3c(NC(=O)Nc4ccc5c(c4)OCO5)cccc3C(=O)N([C@@H](C)CO)C[C@H]2C)cc1,11.1% (inactive)
15,CO[C@H]1CN(C)C(=O)c2cc(NC(=O)c3ccc(-c4ccccc4)cc3)ccc2OC[C@@H](C)NC[C@@H]1C,30.6% (inactive)
16,CNC[C@H]1Oc2ccc(N)cc2CC(=O)N([C@H](C)CO)C[C@H]1C,-8.02% (inactive)

# Same assay, conditions: Clostridioides difficile clinical isolate growth, OD600, 24 h; at 135 µM (top of the series)
row,SMILES,"activity change, negative = inhibition"
1,O=C(C[C@H]1C[C@H]2c3cc(NC(=O)Nc4ccccc4)ccc3O[C@H]2[C@@H](CO)O1)NC1CCCC1,11% (inactive)
2,COc1ccc(S(=O)(=O)N(C)C[C@@H]2Oc3ccc(NC(=O)CCCN(C)C)cc3CC(=O)N([C@H](C)CO)C[C@H]2C)cc1,-7.92% (inactive)
3,C[C@@H]1CN([C@H](C)CO)C(=O)c2cc(NC(=O)Nc3ccc4c(c3)OCO4)ccc2O[C@H]1CN(C)Cc1ccccc1,-5.34% (inactive)
4,C[C@@H]1CN([C@@H](C)CO)C(=O)Cc2cc(NC(=O)CCCN(C)C)ccc2O[C@H]1CN(C)C,-6.21% (inactive)
5,CNC[C@H]1Oc2c(N)cccc2C(=O)N([C@H](C)CO)C[C@@H]1C,-1.95% (inactive)
6,O=C(Nc1ccc(-c2ccccc2)cc1)[C@H]1[C@H](CO)[C@H]2Cn3c(cccc3=O)[C@H]2N1CC1CCCCC1,32.6% (inactive)
7,C[C@@H]1CN([C@H](C)CO)C(=O)Cc2cc(N(C)C)ccc2O[C@@H]1CN(C)Cc1ccc(Oc2ccccc2)cc1,23.7% (inactive)
